Experimental data from US20260062412A1, “NITROGEN-CONTAINING HETEROCYCLIC COMPOUND HAVING MYT1 INHIBITORY ACTIVITY” (CHUGAI SEIYAKU KABUSHIKI KAISHA, priority 2023, published 2026).

Target: MYT1 protein (Homo sapiens (Human), UniProt Q99640)
Assay: Test for binding to ATP binding site of MYT1 (Kinase Tracer 178 / Eu-Anti-GST antibody TR-FRET)
Conditions: ATP binding site of MYT1, 30 minutes at room temperature

MYT1 protein, sequence (Q99640 whole entry): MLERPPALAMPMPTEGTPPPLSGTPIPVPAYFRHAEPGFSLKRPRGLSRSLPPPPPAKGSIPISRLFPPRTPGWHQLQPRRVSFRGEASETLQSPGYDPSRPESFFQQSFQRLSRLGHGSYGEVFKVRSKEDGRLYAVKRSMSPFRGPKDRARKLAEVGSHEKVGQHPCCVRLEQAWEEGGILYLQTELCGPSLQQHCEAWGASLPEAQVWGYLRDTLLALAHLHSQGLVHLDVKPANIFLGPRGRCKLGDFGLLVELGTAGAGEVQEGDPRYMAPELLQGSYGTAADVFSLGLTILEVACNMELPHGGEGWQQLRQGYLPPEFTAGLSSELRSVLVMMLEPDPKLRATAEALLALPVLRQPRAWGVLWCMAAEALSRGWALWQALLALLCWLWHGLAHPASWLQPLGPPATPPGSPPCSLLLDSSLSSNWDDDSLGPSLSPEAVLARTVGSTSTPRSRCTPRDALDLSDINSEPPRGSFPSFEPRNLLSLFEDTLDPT

SMILES | IC50
Nc1c(-c2cc(F)c(F)c3[nH]ncc23)c2cc(OC(F)(F)F)c3ncccc3c2[nH]c1=O [Compound C72, 3-Amino-4-(6,7-difluoro-1H-indazol-4-yl)-6-(trifluoromethoxy)-1H-1,7-phenanthrolin-2-one] | 6.2 nM
Nc1c(-c2ccc(Cl)c3[nH]ncc23)c2cc(Br)c3ncccc3c2[nH]c1=O [Compound C73, 3-Amino-6-bromo-4-(7-chloro-1H-indazol-4-yl)-1H-1,7-phenanthrolin-2-one] | < 14 nM
Nc1c(-c2ccc(Cl)c3[nH]ncc23)c2cc(Cl)c3ncccc3c2[nH]c1=O [Compound C77, 3-Amino-6-chloro-4-(7-chloro-1H-indazol-4-yl)-1H-1,7-phenanthrolin-2-one] | 8.5 nM
Nc1c(-c2cncc3[nH]ncc23)c2cc(Br)c3ncccc3c2[nH]c1=O [Compound C80, 3-Amino-6-bromo-4-(1H-pyrazolo[3,4-c]pyridin-4-yl)-1H-1,7-phenanthrolin-2-one] | 100 nM
Nc1c(-c2ccnc3[nH]ncc23)c2cc(Br)c3ncccc3c2[nH]c1=O [Compound C81, 3-Amino-6-bromo-4-(1H-pyrazolo[3,4-b]pyridin-4-yl)-1H-1,7-phenanthrolin-2-one] | 49 nM
Nc1c(-c2ccnc3[nH]ncc23)c2cc(C3CC3)c3ncccc3c2[nH]c1=O [Compound C82, 3-Amino-6-cyclopropyl-4-(1H-pyrazolo[3,4-b]pyridin-4-yl)-1H-1,7-phenanthrolin-2-one] | 11 nM
N#Cc1cc2c(-c3ccc(F)c4[nH]ncc34)c(N)c(=O)[nH]c2c2cccnc12 [Compound C87, 3-Amino-4-(7-fluoro-1H-indazol-4-yl)-2-oxo-1H-1,7-phenanthroline-6-carbonitrile] | 18 nM
CN(C)C(=O)Cc1cc2c(-c3ccc(F)c4[nH]ncc34)c(N)c(=O)[nH]c2c2cccnc12 [Compound C93, 2-[3-Amino-4-(7-fluoro-1H-indazol-4-yl)-2-oxo-1H-1,7-phenanthrolin-6-yl]-N,N-dimethylacetamide] | 32 nM
Nc1c(-c2ccc(F)c3[nH]ncc23)c2cc(C3=COCC3)c3ncccc3c2[nH]c1=O [Compound C94, 3-Amino-6-(2,3-dihydrofuran-4-yl)-4-(7-fluoro-1H-indazol-4-yl)-1H-1,7-phenanthrolin-2-one] | 8.4 nM
N#CC1(c2cc3c(-c4ccc(F)c5[nH]ncc45)c(N)c(=O)[nH]c3c3cccnc23)CC1 [Compound C95, 1-[3-Amino-4-(7-fluoro-1H-indazol-4-yl)-2-oxo-1H-1,7-phenanthrolin-6-yl]cyclopropane-1-carbonitrile] | 8.7 nM
Nc1c(-c2ccc(F)c3[nH]ncc23)c2cc(C3CCCO3)c3ncccc3c2[nH]c1=O (centres unmarked) [Compound C96, 3-Amino-4-(7-fluoro-1H-indazol-4-yl)-6-(oxolan-2-yl)-1H-1,7-phenanthrolin-2-one] | 5.3 nM
CC(C)(C)OC(=O)N1CC(c2cc3c(-c4ccc(F)c5[nH]ncc45)c(N)c(=O)[nH]c3c3cccnc23)C1 [Compound C97, tert-Butyl 3-[3-amino-4-(7-fluoro-1H-indazol-4-yl)-2-oxo-1H-1,7-phenanthrolin-6-yl]azetidine-1-carboxylate] | 22 nM
CC(C)(C)OC(=O)N1CCC(c2cc3c(-c4ccc(F)c5[nH]ncc45)c(N)c(=O)[nH]c3c3cccnc23)CC1 [Compound C99, tert-Butyl 4-[3-amino-4-(7-fluoro-1H-indazol-4-yl)-2-oxo-1H-1,7-phenanthrolin-6-yl]piperidine-1-carboxylate] | 21 nM
CC(C)CCc1cc2c(-c3ccc(F)c4[nH]ncc34)c(N)c(=O)[nH]c2c2cccnc12 [Compound C107, 3-Amino-4-(7-fluoro-1H-indazol-4-yl)-6-(3-methylbutyl)-1H-1,7-phenanthrolin-2-one] | 8.1 nM
CCC(CC)c1cc2c(-c3ccc(F)c4[nH]ncc34)c(N)c(=O)[nH]c2c2cccnc12 [Compound C108, 3-Amino-4-(7-fluoro-1H-indazol-4-yl)-6-pentan-3-yl-1H-1,7-phenanthrolin-2-one] | 37 nM
CP(C)(=O)c1cc2c(-c3ccc(F)c4[nH]ncc34)c(N)c(=O)[nH]c2c2cccnc12 [Compound C110, 3-Amino-6-dimethylphosphoryl-4-(7-fluoro-1H-indazol-4-yl)-1H-1,7-phenanthrolin-2-one] | 14 nM
Nc1c(-c2ccc(F)c3[nH]ncc23)c2cc(N3CCCC3=O)c3ncccc3c2[nH]c1=O [Compound C112, 3-Amino-4-(7-fluoro-1H-indazol-4-yl)-6-(2-oxopyrrolidin-1-yl)-1H-1,7-phenanthrolin-2-one] | 78 nM

Further molecules by falling IC50, results first:

IC50 | SMILES
5 nM | CC(C)Cc1cc2c(-c3ccc(F)c4[nH]ncc34)c(N)c(=O)[nH]c2c2cccnc12 [Compound C105, 3-Amino-4-(7-fluoro-1H-indazol-4-yl)-6-(2-methylpropyl)-1H-1,7-phenanthrolin-2-one]
4.9 nM | Nc1c(-c2cc(F)c(F)c3[nH]ncc23)c2cc(Br)c3ncccc3c2[nH]c1=O [Compound C66, 3-Amino-6-bromo-4-(6,7-difluoro-1H-indazol-4-yl)-1H-1,7-phenanthrolin-2-one]
4.9 nM | Nc1c(-c2ccc(F)c3[nH]ncc23)c2cc(I)c3ncccc3c2[nH]c1=O [Compound C111, 3-Amino-4-(7-fluoro-1H-indazol-4-yl)-6-iodo-1H-1,7-phenanthrolin-2-one]
4.6 nM | CCC(C)c1cc2c(-c3ccc(F)c4[nH]ncc34)c(N)c(=O)[nH]c2c2cccnc12 (centres unmarked) [Compound C109, 3-Amino-6-butan-2-yl-4-(7-fluoro-1H-indazol-4-yl)-1H-1,7-phenanthrolin-2-one]
4.6 nM | Nc1c(-c2ccc(F)c3[nH]ncc23)c2cc(N3CCCC3)c3ncccc3c2[nH]c1=O [Compound C113, 3-Amino-4-(7-fluoro-1H-indazol-4-yl)-6-pyrrolidin-1-yl-1H-1,7-phenanthrolin-2-one]
4.3 nM | C=C(C)c1cc2c(-c3ccc(F)c4[nH]ncc34)c(N)c(=O)[nH]c2c2cccnc12 [Compound C103, 3-Amino-4-(7-fluoro-1H-indazol-4-yl)-6-prop-1-en-2-yl-1H-1,7-phenanthrolin-2-one]
3.9 nM | C=Cc1cc2c(-c3ccc(F)c4[nH]ncc34)c(N)c(=O)[nH]c2c2cccnc12 [Compound C89, 3-Amino-6-ethenyl-4-(7-fluoro-1H-indazol-4-yl)-1H-1,7-phenanthrolin-2-one]
3.7 nM | Nc1c(-c2ccc(F)c3[nH]ncc23)c2cc(N3CCC(F)(F)C3)c3ncccc3c2[nH]c1=O [Compound C115, 3-Amino-6-(3,3-difluoropyrrolidin-1-yl)-4-(7-fluoro-1H-indazol-4-yl)-1H-1,7-phenanthrolin-2-one]
3.5 nM | Nc1c(-c2ccc(F)c3[nH]ncc23)c2cc(N3CCC(N4CCOCC4)CC3)c3ncccc3c2[nH]c1=O [Compound C117, 3-Amino-4-(7-fluoro-1H-indazol-4-yl)-6-(4-morpholin-4-ylpiperidin-1-yl)-1H-1,7-one]
3.4 nM | CC(C)c1cc2c(-c3ccc(F)c4[nH]ncc34)c(N)c(=O)[nH]c2c2cccnc12 [Compound C104, 3-Amino-4-(7-fluoro-1H-indazol-4-yl)-6-propan-2-yl-1H-1,7-phenanthrolin-2-one]
2.7 nM | CCCc1cc2c(-c3ccc(F)c4[nH]ncc34)c(N)c(=O)[nH]c2c2cccnc12 [Compound C106, 3-Amino-4-(7-fluoro-1H-indazol-4-yl)-6-propyl-1H-1,7-phenanthrolin-2-one]
2.7 nM | Nc1c(-c2ccc(F)c3[nH]ncc23)c2cc(N3CCC(O)C3)c3ncccc3c2[nH]c1=O (centres unmarked) [Compound C116, 3-Amino-4-(7-fluoro-1H-indazol-4-yl)-6-(3-hydroxypyrrolidin-1-yl)-1H-1,7-phenanthrolin-2-one]
2.3 nM | Nc1c(-c2ccc(F)c3[nH]ncc23)c2cc(N3CC4(COC4)C3)c3ncccc3c2[nH]c1=O [Compound C118, 3-Amino-4-(7-fluoro-1H-indazol-4-yl)-6-(2-oxa-6-azaspiro[3,3]heptan-6-yl)-1H-1,7-one]
2 nM | CN1CCN(c2cc3c(-c4ccc(F)c5[nH]ncc45)c(N)c(=O)[nH]c3c3cccnc23)CC1 [Compound C114, 3-Amino-4-(7-fluoro-1H-indazol-4-yl)-6-(4-methylpiperazin-1-yl)-1H-1,7-phenanthrolin-2-one]
1.9 nM | Nc1c(-c2cc(F)c(Cl)c3[nH]ncc23)c2cc(Br)c3ncccc3c2[nH]c1=O [Compound C75, 3-Amino-6-bromo-4-(7-chloro-6-fluoro-1H-indazol-4-yl)-1H-1,7-phenanthrolin-2-one]
1.7 nM | Nc1c(-c2cc(F)c(F)c3[nH]ncc23)c2cc(OCC3(F)CC3)c3ncccc3c2[nH]c1=O [Compound C71, 3-Amino-4-(6,7-difluoro-1H-indazol-4-yl)-6-[(1-fluorocyclopropyl)methoxy]-1H-1,7-one]
1.6 nM | N#CCOc1cc2c(-c3ccc(F)c4[nH]ncc34)c(N)c(=O)[nH]c2c2cccnc12 [Compound C62, 2-[[3-Amino-4-(7-fluoro-1H-indazol-4-yl)-2-oxo-1H-1,7-phenanthrolin-6-yl]oxy]acetonitrile]
1.4 nM | Nc1c(-c2cc(F)c(F)c3[nH]ncc23)c2cc(OCC(F)F)c3ncccc3c2[nH]c1=O [Compound C68, 3-Amino-6-(2,2-difluoroethoxy)-4-(6,7-difluoro-1H-indazol-4-yl)-1H-1,7-phenanthrolin-2-one]
1.1 nM | Nc1c(-c2ccc(F)c3[nH]ncc23)c2cc(SC(F)F)c3ncccc3c2[nH]c1=O [Compound C63, 3-Amino-6-(difluoromethylsulfanyl)-4-(7-fluoro-1H-indazol-4-yl)-1H-1,7-phenanthrolin-2-one]
1.1 nM | Nc1c(-c2cc(F)c(F)c3[nH]ncc23)c2cc(OCC3CC3)c3ncccc3c2[nH]c1=O [Compound C70, 3-Amino-6-(cyclopropylmethoxy)-4-(6,7-difluoro-1H-indazol-4-yl)-1H-1,7-phenanthrolin-2-one]
0.83 nM | COc1cc2c(-c3ccc(Cl)c4[nH]ncc34)c(N)c(=O)[nH]c2c2cccnc12 [Compound C74, 3-Amino-4-(7-chloro-1H-indazol-4-yl)-6-methoxy-1H-1,7-phenanthrolin-2-one]
